A value given as a limit tells only on which side of the number the result lay.

The assay deals with PIK3CD (Human) (UniProt O00329). As to the kind of experiment: Enzyme Assay.
Chain of PIK3CD (Human) (O00329 whole entry, looked up): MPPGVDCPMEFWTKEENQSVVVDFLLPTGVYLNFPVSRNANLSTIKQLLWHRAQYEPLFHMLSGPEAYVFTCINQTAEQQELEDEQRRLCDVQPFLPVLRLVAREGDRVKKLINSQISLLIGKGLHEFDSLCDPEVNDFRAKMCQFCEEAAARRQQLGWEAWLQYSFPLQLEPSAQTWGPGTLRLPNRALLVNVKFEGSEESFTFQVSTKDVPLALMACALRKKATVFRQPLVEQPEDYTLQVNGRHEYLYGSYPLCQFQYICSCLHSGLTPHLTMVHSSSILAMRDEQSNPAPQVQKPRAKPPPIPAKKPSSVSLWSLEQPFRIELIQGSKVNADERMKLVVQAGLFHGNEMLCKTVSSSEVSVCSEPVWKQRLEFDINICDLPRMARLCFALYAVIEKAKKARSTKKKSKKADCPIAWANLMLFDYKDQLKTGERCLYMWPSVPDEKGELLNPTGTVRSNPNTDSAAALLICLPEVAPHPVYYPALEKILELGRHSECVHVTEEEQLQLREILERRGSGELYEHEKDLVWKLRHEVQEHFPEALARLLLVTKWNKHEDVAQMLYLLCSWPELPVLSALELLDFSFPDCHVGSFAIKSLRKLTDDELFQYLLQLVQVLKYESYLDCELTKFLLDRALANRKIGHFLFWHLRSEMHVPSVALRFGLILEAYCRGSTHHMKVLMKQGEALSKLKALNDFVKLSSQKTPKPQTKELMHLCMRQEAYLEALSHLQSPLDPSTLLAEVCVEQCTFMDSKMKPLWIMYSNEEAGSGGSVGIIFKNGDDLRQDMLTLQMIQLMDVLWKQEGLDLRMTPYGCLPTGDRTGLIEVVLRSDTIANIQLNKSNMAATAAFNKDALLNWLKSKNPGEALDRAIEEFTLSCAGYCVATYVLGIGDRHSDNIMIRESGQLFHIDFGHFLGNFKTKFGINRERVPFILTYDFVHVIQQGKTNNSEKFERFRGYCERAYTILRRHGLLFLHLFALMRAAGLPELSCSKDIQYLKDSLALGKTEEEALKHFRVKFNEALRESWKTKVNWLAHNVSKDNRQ
What is called IC50 is the concentration that gives 50% inhibition. Compound `CCn1ncc(-c2nc3c(O[C@H]4CCN(S(=O)(=O)c5ccc(-c6ccccc6)cc5)C4)ncnc3n2C)c1C` had an IC50 of 4600 nM.
The figure for `CCn1ncc(-c2nc3c(O[C@H]4CCN(C(=O)C5CCC5)C4)ncnc3n2C)c1C` is 7 nM; for `CCn1ncc(-c2nc3c(O[C@H]4CCN(C(=O)CN5CCCC5=O)C4)ncnc3n2C)c1C` it is 480 nM; for `CCn1ncc(-c2nc3c(OC4CCN(C(=O)CC5CCOCC5)C4)ncnc3n2C)c1C` (stereo not drawn) it is 31 nM.
`CCC(=O)N1CC[C@H](Oc2ncnc3c2nc(Oc2ccc(OC)c(F)c2)n3C)C1`: the concentration for half-maximal inhibition (IC50) was found to be 120 nM.
The value for `CCn1ncc(-c2nc3c(O[C@H]4CCN(C(=O)c5cnn6cc[nH]c56)C4)ncnc3n2C)c1C` was 270 nM.
The figure for `CCn1c(-c2cnc(C)nc2)nc2c(O[C@H]3CCN(C(=O)c4ccn(C)n4)C3)ncnc21` is 3 nM.
`CCn1ncc(-c2nc3c(O[C@H]4CCN(C(=O)c5cccnc5)C4)ncnc3n2C)c1C` returned an IC50 of 19 nM.
The value for `CCC(=O)N1CC[C@H](Oc2ncnc3c2nc(-c2ccc(C(F)(F)F)nc2)n3C)C1` was 99 nM; that for `CCC(=O)N1CC[C@H](Oc2ncnc3c2nc(C(F)(F)F)n3C)C1` was 430 nM.
The value for `CCn1c(-c2cnc(C)nc2)nc2c(O[C@H]3CCN(C(=O)C4CC4)[C@@H]3C)ncnc21` was 2.8 nM; that for `CCC(=O)N1CC[C@H](Oc2ncnc3c2nc(-c2cnn(CC)c2C)n3CC)C1` was 0.6 nM; that for `CCC(=O)N[C@H]1CC[C@H](Oc2ncnc3c2nc(-c2cnc(C)nc2)n3CC)CC1` was 330 nM.
The figure for `CCn1c(-c2cnc(C)nc2)nc2c(O[C@H]3CCN(c4ccc(F)cc4)C3)ncnc21` is 18 nM; for `CCC(=O)N1CC[C@H](Oc2ncnc3c2nc(-c2cncc(N)c2)n3C)C1` it is 5.7 nM.
With `CCn1c(-c2cnc(OC)c(C(F)(F)F)c2)nc2c(O[C@H]3CCN(C(=O)C4CC4)C3)ncnc21`, the IC50 was < 1 nM.
Compound `CCC(=O)N1CC[C@H](Oc2ncnc3c2nc(C2CC2)n3C)C1` yielded an IC50 of 580 nM.
`Cn1c(-c2ccc3[nH]ncc3c2)nc2c(O[C@H]3CCN(C(=O)OC(C)(C)C)C3)ncnc21` gave an IC50 of 35 nM.
`CCn1c(N2CCC(C)C2)nc2c(O[C@H]3CCN(C(=O)OC(C)(C)C)C3)ncnc21` (stereo partly drawn) had a 50% inhibitory concentration (IC50) of 570 nM.
Regarding `CCn1ncc(-c2nc3c(O[C@H]4CCN(C(=O)c5c(C)nn(C)c5C)C4)ncnc3n2C)c1C`, the IC50 came to 74 nM.
For `CCn1ncc(-c2nc3c(O[C@H]4CCN(c5nccc6sccc56)C4)ncnc3n2C)c1C`, the IC50 amounted to 10 nM.
As to `CCC(=O)N1CC[C@H](Oc2ncnc3c2nc(-c2cc(O)cc(F)c2)n3C)C1`, the IC50 was found to be 3.8 nM.
Regarding `CCn1c(-c2cnc(N(C)C)nc2)nc2c(O[C@H]3CCN(C(=O)C4CC4)C3)ncnc21`, the IC50 was 23 nM.
The figure for `CCn1ncc(-c2nc3c(O[C@H]4CCCN(C(=O)OC(C)(C)C)C4)ncnc3n2C)c1C` is 94 nM; for `CCn1ncc(-c2nc3c(O[C@H]4CCN(C(=O)c5[nH]ncc5C)C4)ncnc3n2C)c1C` it is 3.6 nM.
`CCn1ncc(-c2nc3c(O[C@H]4CCN(C(=O)c5ccnn5C)C4)ncnc3n2C)c1C` returned an IC50 of 22 nM.
Regarding `CCn1c(-c2cnc(C)nc2)nc2c(O[C@H]3CCN(C(=O)N4CCC(C)(O)C4)C3)ncnc21` (stereo partly drawn), the IC50 stood at 7.3 nM.
The value for `CCc1oncc1C(=O)N1CC[C@H](Oc2ncnc3c2nc(-c2cnn(CC)c2C)n3C)C1` was 27 nM.
The figure for `CCn1c(-c2ccc(C(F)(F)F)cc2)nc2c(O[C@H]3CCN(C(=O)C4CC4)C3)ncnc21` is 3.4 nM; for `CCn1ncc(-c2nc3c(O[C@H]4CCN(C(=O)c5cc(C(C)C)n[nH]5)C4)ncnc3n2C)c1C` it is 109 nM.
As for `CCn1ncc(-c2nc3c(O[C@H]4CCN(C(=O)c5cocn5)C4)ncnc3n2C)c1C`, the concentration for half-maximal inhibition (IC50) amounted to 19 nM.
For the compound `CCn1ncc(-c2nc3c(O[C@H]4CCN(S(=O)(=O)CC)C4)ncnc3n2C)c1C`, the half-inhibitory concentration (IC50) was found to be 200 nM.
On to `CCn1c(-c2cnc(C)nc2)nc2c(O[C@H]3CCN(c4cc(C)ccn4)C3)ncnc21`, for which the IC50 amounted to 4.1 nM.
As for `CCn1ncc(-c2nc3c(O[C@H]4CCN(C(=O)N[C@H](C)c5ccccc5)C4)ncnc3n2C)c1C`, the IC50 came out at 630 nM.
Take `CCC(=O)N1CC[C@H](Oc2ncnc3c2nc(-c2cnc(C)nc2)n3CC)C1`: the IC50 came to 13 nM.
The value for `CCn1ncc(-c2nc3c(S(=O)(=O)[C@H]4CCN(C(=O)C5CCOCC5)C4)ncnc3n2C)c1C` was 960 nM.
`CCC(=O)N1CC[C@H](Oc2ncnc3c2nc(Oc2cccc(C)c2C)n3C)C1` yielded an IC50 of 2400 nM.
The value for `CCNC(=O)N1CC[C@H](Oc2ncnc3c2nc(-c2cnn(CC)c2C)n3C)C1` was 10 nM; that for `CCn1ncc(-c2nc3c(S[C@H]4CCN(C(=O)c5ccn(C)n5)C4)ncnc3n2C)c1C` was 19 nM; that for `CCn1c(-c2ccc(OC(F)F)nc2)nc2c(O[C@H]3CCN(C(=O)OC(C)(C)C)C3)ncnc21` was 15 nM.
The value for `CCn1c(-c2cnc(C(C)(C)C)s2)nc2c(O[C@H]3CCN(C(=O)OC(C)(C)C)C3)ncnc21` was 0.5 nM; that for `CCn1c(N(C)C(C)C)nc2c(O[C@H]3CCN(C(=O)OC(C)(C)C)C3)ncnc21` was 580 nM.
In the case of `CCn1ncc(-c2nc3c(O[C@H]4CCN(C(=O)c5cnoc5C(C)C)C4)ncnc3n2C)c1C`, the IC50 was found to be 41 nM.
The value for `CCn1c(-c2cnc(C)nc2)nc2c(O[C@H]3CCN(c4ccccn4)C3)ncnc21` was 1.7 nM; that for `CCn1c(-c2cnc(C)nc2)nc2c(O[C@H]3CCN(c4nccs4)C3)ncnc21` was 44 nM; that for `CCn1ncc(-c2nc3c(O[C@H]4CCN(c5nccn6cnnc56)C4)ncnc3n2C)c1C` was 30 nM.
The value for `CCC(=O)N1CC[C@H](Oc2ncnc3c2nc(-c2ccc(OC)c(C)c2)n3C)C1` was 4.6 nM; that for `CCn1ncc(-c2nc3c(OC4CCN(C(=O)C5CCOCC5)CC4)ncnc3n2C)c1C` was 1100 nM.
The value for `CCn1ncc(-c2nc3c(O[C@H]4CCN(S(=O)(=O)c5ccccc5)C4)ncnc3n2C)c1C` was 360 nM; that for `Cn1c(-c2cnc(C(C)(C)C)s2)nc2c(O[C@H]3CCN(C(=O)OC(C)(C)C)C3)ncnc21` was 6.9 nM.
Consider `CCn1ncc(-c2nc3c(O[C@H]4CCN(C(=O)c5cnon5)C4)ncnc3n2C)c1C`, for which the IC50 turned out to be 41 nM.
The value for `CCn1c(-c2cnc(C)nc2)nc2c(O[C@H]3CCN(C(=O)N4CC(C)(OC)C4)C3)ncnc21` was 34 nM; that for `CCC(=O)N1CC[C@H](Oc2ncnc3c2nc(I)n3C)C1` was 140 nM.

For the origin of these results see the Kinase Knowledgebase extract (Sharma et al. 2016).
